Laboratory results from ChEMBL document CHEMBL1135461, “Conformations and receptor activity of desmopressin analogues, which contain gamma-turn mimetics or a psi[CH(2)O] isostere” (2002).

What follows are compounds tested on Rattus norvegicus (assay: In vivo antidiuretic activity in female Sprague-Dawley rats by intravenous administration using Vasopressin house standard (561 IU/mg)).

For N=C(N)NCCC[C@@H](NC(=O)[C@@H]1CCCN1C(=O)[C@@H]1CSSCCC(=O)N[C@@H](Cc2ccc(O)cc2)C(=O)N[C@@H](Cc2ccccc2)C(=O)N[C@@H](CCC(N)=O)C(=O)N[C@@H](CC(N)=O)C(=O)N1)C(=O)NCC(N)=O [DESMOPRESSIN], which Agonist activity is on record?
Its Agonist activity is 1000 IU mg-1.

How did the Agonist activity turn out when N=C(N)NCCC[C@H](NC(=O)[C@@H]1CCCN1C(=O)[C@@H]1CSSC[C@H](N)C(=O)N[C@@H](Cc2ccc(O)cc2)C(=O)N[C@@H](Cc2ccccc2)C(=O)N[C@@H](CCC(N)=O)C(=O)N[C@@H](CC(N)=O)C(=O)N1)C(=O)NCC(N)=O [VASOPRESSIN] was run?
The Agonist activity was 561 IU mg-1.

Which Agonist activity does the source give for CC1OC2CN(C1=O)[C@@H](CC(N)=O)C(=O)N[C@H](C(=O)N1CCC[C@H]1C(=O)N[C@H](CCCN=C(N)N)C(=O)NCC(N)=O)CSSCCC(=O)N[C@@H](Cc1ccc(O)cc1)C(=O)N[C@H]2Cc1ccccc1 (stereo in doubt; 6) here?
The Agonist activity was 0.0026 IU mg-1.

For C[C@@H]1NC(=O)[C@H](Cc2ccccc2)NC(=O)[C@H](Cc2ccc(O)cc2)NC(=O)CCSSC[C@@H](C(=O)N2CCC[C@H]2C(=O)N[C@H](CCCN=C(N)N)C(=O)NCC(N)=O)NC(=O)[C@H](CC(N)=O)NC1=O, which Agonist activity is on record?
The Agonist activity was 645 IU mg-1.

With C[C@@H]1OC[C@H](Cc2ccccc2)NC(=O)[C@H](Cc2ccc(O)cc2)NC(=O)CCSSC[C@@H](C(=O)N2CCC[C@H]2C(=O)N[C@H](CCCN=C(N)N)C(=O)NCC(N)=O)NC(=O)[C@H](CC(N)=O)NC1=O as the compound, how does the Agonist activity read?
Its Agonist activity is 0.56 IU mg-1.
